Measured values as given in patent publication US20240174718A1, “RYANODINE RECEPTOR INHIBITOR COMPOUNDS AND METHODS RELATING THERETO” (Vanderbilt University, priority 2022, published 2024).

Key:
RyR2 = biological target: T1, RyR2 (Mus musculus, UniProt E9Q401); experiment: Intracellular Ca2+ measurements / spontaneous Ca2+ release in intact Casq2-/- cardiomyocytes; assay type: cell-based
T1 construct: spontaneous openings of intracellular RyR2 Ca^2+ release channels; endogenous in cells; host or cells: ventricular cardiomyocytes isolated from Casq2-/- mice (saponin-permeabilized in A1, intact in A7)
T1 sequence (E9Q401 whole entry): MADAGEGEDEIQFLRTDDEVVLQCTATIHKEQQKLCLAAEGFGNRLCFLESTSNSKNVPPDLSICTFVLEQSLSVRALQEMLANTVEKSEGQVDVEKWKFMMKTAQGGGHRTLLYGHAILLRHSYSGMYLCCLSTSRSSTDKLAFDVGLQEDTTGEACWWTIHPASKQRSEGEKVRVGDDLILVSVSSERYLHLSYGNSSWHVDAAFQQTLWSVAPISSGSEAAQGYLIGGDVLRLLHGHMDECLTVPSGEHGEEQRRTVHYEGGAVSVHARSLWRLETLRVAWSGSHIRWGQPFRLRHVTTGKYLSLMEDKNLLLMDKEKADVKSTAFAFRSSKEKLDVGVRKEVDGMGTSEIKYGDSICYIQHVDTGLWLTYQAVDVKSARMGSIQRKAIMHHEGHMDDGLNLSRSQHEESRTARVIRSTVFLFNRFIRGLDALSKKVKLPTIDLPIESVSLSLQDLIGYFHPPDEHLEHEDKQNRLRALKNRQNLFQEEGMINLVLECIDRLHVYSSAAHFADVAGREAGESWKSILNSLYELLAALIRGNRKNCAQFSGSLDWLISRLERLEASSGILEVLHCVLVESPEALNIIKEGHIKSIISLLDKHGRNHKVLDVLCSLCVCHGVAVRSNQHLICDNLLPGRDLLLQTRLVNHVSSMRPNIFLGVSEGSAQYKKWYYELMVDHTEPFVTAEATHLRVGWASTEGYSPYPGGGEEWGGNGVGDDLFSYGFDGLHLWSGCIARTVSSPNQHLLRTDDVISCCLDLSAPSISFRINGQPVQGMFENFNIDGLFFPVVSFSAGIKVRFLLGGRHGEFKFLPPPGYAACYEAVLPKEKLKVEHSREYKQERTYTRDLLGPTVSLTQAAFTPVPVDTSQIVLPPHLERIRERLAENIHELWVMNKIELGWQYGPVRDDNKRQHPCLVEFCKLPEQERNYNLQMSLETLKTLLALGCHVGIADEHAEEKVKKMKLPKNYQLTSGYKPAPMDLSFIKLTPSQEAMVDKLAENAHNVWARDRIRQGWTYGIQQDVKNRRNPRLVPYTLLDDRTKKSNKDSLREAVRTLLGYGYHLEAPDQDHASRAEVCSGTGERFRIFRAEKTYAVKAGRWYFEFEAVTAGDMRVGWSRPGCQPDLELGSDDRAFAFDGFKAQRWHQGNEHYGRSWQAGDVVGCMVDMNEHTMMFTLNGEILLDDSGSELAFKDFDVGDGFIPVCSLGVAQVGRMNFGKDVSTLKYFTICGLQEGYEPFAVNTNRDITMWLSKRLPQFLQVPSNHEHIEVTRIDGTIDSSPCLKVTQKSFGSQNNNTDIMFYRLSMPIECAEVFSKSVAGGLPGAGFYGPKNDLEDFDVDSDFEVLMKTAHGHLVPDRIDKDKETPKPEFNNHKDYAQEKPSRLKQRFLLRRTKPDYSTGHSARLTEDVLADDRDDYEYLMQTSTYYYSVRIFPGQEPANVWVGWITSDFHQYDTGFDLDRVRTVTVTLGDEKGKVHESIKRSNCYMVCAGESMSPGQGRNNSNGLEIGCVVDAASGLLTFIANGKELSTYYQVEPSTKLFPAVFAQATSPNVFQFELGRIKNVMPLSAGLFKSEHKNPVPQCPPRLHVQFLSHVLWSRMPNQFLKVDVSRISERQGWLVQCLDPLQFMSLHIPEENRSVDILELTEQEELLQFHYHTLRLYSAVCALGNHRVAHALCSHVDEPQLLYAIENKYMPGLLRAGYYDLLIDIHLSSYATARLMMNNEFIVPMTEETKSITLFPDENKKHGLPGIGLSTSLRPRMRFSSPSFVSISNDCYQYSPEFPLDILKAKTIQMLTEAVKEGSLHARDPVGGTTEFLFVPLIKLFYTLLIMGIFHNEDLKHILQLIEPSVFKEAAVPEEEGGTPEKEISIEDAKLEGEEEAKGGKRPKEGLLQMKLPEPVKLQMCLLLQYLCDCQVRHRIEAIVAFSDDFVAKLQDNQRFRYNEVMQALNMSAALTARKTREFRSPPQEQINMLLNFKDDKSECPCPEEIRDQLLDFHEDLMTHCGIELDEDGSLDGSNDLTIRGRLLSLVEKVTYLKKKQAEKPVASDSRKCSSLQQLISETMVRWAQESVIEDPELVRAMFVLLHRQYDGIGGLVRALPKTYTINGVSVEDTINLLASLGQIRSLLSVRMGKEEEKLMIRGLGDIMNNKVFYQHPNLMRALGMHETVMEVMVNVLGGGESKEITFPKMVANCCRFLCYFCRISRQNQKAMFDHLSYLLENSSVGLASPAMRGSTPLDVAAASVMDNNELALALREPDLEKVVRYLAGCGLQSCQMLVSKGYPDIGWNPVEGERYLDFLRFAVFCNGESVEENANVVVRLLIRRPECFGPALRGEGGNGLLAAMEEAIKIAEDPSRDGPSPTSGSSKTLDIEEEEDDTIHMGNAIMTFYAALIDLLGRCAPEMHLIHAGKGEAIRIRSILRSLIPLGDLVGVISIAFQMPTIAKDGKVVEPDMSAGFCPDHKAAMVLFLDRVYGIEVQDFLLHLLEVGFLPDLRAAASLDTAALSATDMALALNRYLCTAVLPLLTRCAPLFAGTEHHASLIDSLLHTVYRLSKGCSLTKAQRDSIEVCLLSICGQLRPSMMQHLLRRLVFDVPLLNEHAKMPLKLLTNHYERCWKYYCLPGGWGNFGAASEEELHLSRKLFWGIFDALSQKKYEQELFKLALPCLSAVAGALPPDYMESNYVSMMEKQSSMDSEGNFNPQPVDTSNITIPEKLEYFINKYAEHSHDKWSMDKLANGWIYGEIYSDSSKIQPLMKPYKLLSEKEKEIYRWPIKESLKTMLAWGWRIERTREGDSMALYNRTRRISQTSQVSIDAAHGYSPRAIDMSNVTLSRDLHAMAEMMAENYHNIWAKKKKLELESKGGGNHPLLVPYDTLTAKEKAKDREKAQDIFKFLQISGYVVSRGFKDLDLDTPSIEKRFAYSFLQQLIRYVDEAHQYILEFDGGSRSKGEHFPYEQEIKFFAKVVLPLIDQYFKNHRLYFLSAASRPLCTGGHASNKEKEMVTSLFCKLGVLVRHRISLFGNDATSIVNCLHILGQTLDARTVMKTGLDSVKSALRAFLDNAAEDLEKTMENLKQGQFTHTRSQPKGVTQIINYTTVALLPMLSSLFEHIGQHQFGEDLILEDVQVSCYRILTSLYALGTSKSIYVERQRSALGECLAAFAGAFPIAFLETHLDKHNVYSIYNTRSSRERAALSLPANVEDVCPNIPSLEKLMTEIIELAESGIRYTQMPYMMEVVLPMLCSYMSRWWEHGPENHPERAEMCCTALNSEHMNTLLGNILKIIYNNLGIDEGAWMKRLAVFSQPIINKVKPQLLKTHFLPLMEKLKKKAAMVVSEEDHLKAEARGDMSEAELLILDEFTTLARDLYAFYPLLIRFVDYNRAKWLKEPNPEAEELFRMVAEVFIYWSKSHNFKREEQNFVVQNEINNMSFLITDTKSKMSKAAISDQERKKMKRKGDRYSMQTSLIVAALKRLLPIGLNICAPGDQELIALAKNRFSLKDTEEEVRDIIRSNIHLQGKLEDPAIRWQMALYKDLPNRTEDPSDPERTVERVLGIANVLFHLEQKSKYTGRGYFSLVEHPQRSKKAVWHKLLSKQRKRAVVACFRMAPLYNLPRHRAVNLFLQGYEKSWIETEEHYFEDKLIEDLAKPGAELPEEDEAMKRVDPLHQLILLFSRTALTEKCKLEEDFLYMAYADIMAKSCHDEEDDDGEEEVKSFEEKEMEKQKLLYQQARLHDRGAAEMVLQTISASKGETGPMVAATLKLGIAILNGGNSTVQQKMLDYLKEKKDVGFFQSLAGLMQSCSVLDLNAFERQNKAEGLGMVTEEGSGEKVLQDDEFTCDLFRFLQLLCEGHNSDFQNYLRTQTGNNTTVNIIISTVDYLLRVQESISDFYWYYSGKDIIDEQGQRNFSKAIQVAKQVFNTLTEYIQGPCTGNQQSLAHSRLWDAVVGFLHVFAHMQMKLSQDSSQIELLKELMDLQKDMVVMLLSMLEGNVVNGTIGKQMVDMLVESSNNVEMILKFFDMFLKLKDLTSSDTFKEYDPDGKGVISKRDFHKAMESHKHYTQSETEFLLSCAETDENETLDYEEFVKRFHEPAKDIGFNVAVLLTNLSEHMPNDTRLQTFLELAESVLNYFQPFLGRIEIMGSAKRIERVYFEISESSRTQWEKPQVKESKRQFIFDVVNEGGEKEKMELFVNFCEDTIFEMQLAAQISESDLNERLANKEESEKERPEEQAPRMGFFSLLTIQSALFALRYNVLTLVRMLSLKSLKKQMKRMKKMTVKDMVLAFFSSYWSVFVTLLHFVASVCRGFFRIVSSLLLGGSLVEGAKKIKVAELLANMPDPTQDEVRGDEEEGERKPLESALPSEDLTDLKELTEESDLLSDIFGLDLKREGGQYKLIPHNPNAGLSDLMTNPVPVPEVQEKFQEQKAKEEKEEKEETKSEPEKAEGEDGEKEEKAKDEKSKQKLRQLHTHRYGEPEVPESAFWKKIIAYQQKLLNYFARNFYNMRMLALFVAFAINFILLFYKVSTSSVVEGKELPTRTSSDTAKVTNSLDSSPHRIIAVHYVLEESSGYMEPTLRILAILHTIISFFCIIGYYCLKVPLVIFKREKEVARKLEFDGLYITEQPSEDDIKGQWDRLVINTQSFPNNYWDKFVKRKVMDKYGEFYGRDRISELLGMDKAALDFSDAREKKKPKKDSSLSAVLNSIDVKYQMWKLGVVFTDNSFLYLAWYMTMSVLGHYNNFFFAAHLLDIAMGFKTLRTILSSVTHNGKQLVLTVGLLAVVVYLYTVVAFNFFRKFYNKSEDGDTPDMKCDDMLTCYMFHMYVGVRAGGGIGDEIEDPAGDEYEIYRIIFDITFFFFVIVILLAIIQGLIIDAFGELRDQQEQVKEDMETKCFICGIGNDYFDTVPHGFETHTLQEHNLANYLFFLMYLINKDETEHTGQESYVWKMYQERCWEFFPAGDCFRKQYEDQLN
Method: FIGS. 4(A-G) show intracellular Ca2+ measurements from intact Casq2−/− cardiomyocytes. […] For panels A-D and G, N=26, 30, 30, 30, and 31 cells for DMSO, 0.03, 0.1, 1, and 3 μM ent-B1, respectively. For panels E and F, N=14, 27, 29, 29, and 30 cells for DMSO, 0.03, 0.1, 1, and 3 μM ent-B1, respectively. Data are shown as mean±SD with individual data points.
FIGS. 10(A-B) show the spontaneous Ca^2+ release in intact mouse Casq2^−/− cardiomyocytes. […] Cells were field stimulated at 3 Hz for 20 s before recording. Blue marks indicate final stimulations of pacing train, arrows SCR events. Recording duration was 40 s before 10 mM caffeine application to assess total SR Ca^2+ content. […] Data are shown as mean±SD.
Intracellular Ca^2+ measurements in intact cardiomyocytes—Ventricular cardiomyocytes were isolated from two male 10-week old and one female 13-week old Casq2^−/− mouse as described previously (Knollmann et al., 2006). Cardiomyocytes were pre-incubated for 2 hours with DMSO or ent-B1. Myocytes were then loaded with Fura-2 acetoxymethyl ester (Fura-2 AM; Invitrogen) as described previously (Batiste et al., 2019). Briefly, isolated single ventricular myocytes were incubated with 2 μM Fura-2 AM for 7 minutes to load the indicator in the cytosol. Myocytes were then washed twice for 10 minutes with normal Tyrode (NT) solution containing 250 μM probenecid (all solutions also contained either vehicle [DMSO] or ent-B1). The composition of NT used for Fura-2 loading and washing was (in mM): 134 NaCl, 5.4 KCl, 1.2 CaCl2, 1 MgCl2, 10 glucose, and 10 HEPES, pH adjusted to 7.4 with NaOH. After Fura-2 loading, all experiments were conducted in NT solution containing 1 μM isoproterenol and 2 mM CaCl2. Fura2-loaded myocytes were electrically paced at 3 Hz field stimulation and Ca transients were recorded for 20 seconds followed by no electrical stimulation for 40 seconds to record spontaneous Ca release events. After that, myocytes were perfused with 10 mM caffeine in NT solution for 5 seconds to estimate total SR Ca content. Fura-2 was measured using a dual-beam excitation fluorescence photometry setup (IonOptix Corp.) and analyzed using commercially available data analysis software (IonWizard, IonOptix, Milton, MA). All experiments were conducted at room temperature.
All tests were two-sided and a p-value cutoff of <0.05 was used to denote significance. Concentration-response curves for RyR2 single-channel, [^3H]ryanodine ligand binding and intact myocyte assays were generated using non-linear regression with the equation: Y=Bottom+(Top−Bottom)/(1+(IC50/X)^HillSlope) using least square regression, no weighting, and no constrains on the parameters. The distributions of relative RyR2 open probability at each [ent-B1] were normalized by taking the log of each sample. For the 3×3 crossover in vivo ECG study, a pre-test was conducted using a mixed model with fixed effects of sequence and period; mice were treated as random effects.

Plasma stability ex vivo = assay type: in vitro ADME; conditions: mouse; murine plasma, 37° C., two hours; read-out: parent compound remaining in plasma
Method: FIGS. 11(A-B) show in vivo pharmacokinetics in mice for a compound of the present invention. […] N=3 mice. Plasma collected serially at 0.167, 0.333. 0.5, 1, 3, and 8 hours post-administration. […] Individual data points (grey) shown alongside mean values with connecting lines.
Plasma stability experiments—Drug-free mouse plasma was preincubated in a 96-well polypropylene plate for 30 minutes on a microplate shaker at 37° C. prior to the addition of ent-B1 (final concentration 1900 ng/mL). Drug was added to individual wells (n=3 per compound), mixed thoroughly, and 50 μL of plasma was removed at 0, 15, 30, 45 60, 90, and 120 minutes to evaluate compound stability in mouse plasma at 37° C. Samples removed at each time point were transferred to a 96-well polypropylene plate containing 300 μL of ice-cold acetonitrile containing internal standard (ent-verticilide-d12; 100 ng/mL). Samples were mixed multiple times with a pipette to ensure precipitation of plasma proteins and the plate was covered with an adhesive film to prevent solvent evaporation. […] Peak area ratios of the analyte and internal standard for each sample were analyzed by liquid chromatography coupled to tandem mass spectrometry (LC-MS/MS) and normalized to the area ratio for time point 0 (baseline) to calculate the percent of ent-B1 remaining at each time point. […]

[1] = 3 μM (only the highest concentration tested)

**Q.** Which “Ca2+ decay kinetics (indicator of SERCA2 SR uptake rate)” value (RyR2) does the source give for `CCCCC[C@@H]1OC(=O)[C@@H](C)N(C)C(=O)[C@H](CCCCC)OC(=O)[C@@H](C)N(C)C(=O)[C@H](CCCCC)OC(=O)[C@@H](C)N(C)C1=O` (single isomer, unassigned) [ent-B1] here?
**A.** Its value is “no effect”.

**Q.** And the “time-to-peak of Ca2+ transients” value (RyR2)?
**A.** The value was “no effect”.

**Q.** And the “amplitude of the caffeine-induced Ca2+ transient” value (RyR2; [1])?
**A.** Its value is “reduced”.

**Q.** And the “amplitude of the systolic Ca2+ transient” value (RyR2; [1])?
**A.** Its value is “reduced”.

**Q.** And the “diastolic Ca2+ levels” value (RyR2; [1])?
**A.** The value was “reduced”.

**Q.** What about the remaining at 2 h, 1900 ng/mL (Plasma stability ex vivo) of the same compound?
**A.** Its remaining at 2 h, 1900 ng/mL is roughly 95%.
